Where two headings read alike, the source gives them in different places.
Experiment: Metabolic stability in cryopreserved human hepatocytes
Assay type: in vitro ADME
Conditions: human, cryopreserved human hepatocytes (pooled, suspension)
[1] = Table S1, PROTACs, cryopreserved human hepatocytes, read-out: t1/2
[2] = supplement CSV, human hepatocytes, read-out: HLH t1/2
[3] = Figures 3-5, cryopreserved human hepatocytes, read-out: half-life (t1/2)

Method: Cryopreserved human hepatocytes (pooled suspension hepatocytes, Gibco) were thawed placing in a 37 °C shaking water bath according to the manufacturer’s specifications and resuspended in Williams E medium (WEM) to have 1 × 10^6 cells/mL. Samples with the test compound at 1 μM were incubated at 37 °C, and aliquots of 50 μL were collected at 0, 10, 30, 60, 120, and 240 min. The incubations were quenched 1:3 with ice-cold acetonitrile (containing 1 μM labetalol as the internal standard). Samples were then centrifuged at 12000 rpm for 5 min at 4 °C. The supernatant was concentrated by evaporation under a nitrogen stream and reconstituted with DMSO. Blank was prepared similarly but in the absence of the investigated compounds.
A Thermo Q-exactive mass spectrometer (Thermo Fisher Scientific, Waltham, MA) was used. The LC system, governed by Chromeleon X-press software, consists of a Binary pump, a thermostated autosampler, and a column compartment, all Dionex Ultimate 3000 series modules (Thermo Fisher Scientific, Waltham, MA). A volume of 2 μL was injected for each sample. Chromatographic separation of analytes was conducted in reverse-phase chromatography. In brief, a Luna Omega 1.6 μm Polar (C18, 2.1 mm × 150 mm) was used, and the mobile phases consisted of water (A) and acetonitrile (B), both containing formic acid at 0.1%. The LC flow was set at 0.400 mL/min in a 12 min gradient elution as follows: 99.5:0.5 (A/B) to 5:95 (A/B) over 10 min, 5:95 (A/B) for 2 min, and then reversion back to 99.5:0.5 (A/B) over 2.5 min. The column was operating at a constant temperature of 40 °C.

Compound | half-life at 1 µM [1] | half-life at 1 µM [2] | half-life at 1 µM (Table S2, free ligands, cryopreserved human hepatocytes, read-out: t1/2) | half-life at 1 µM [3]
O=C(COc1cccc2c1C(=O)N(C1CCC(=O)NC1=O)C2=O)NCCCCCCCCCCNC(=O)c1ccc2c(c1)nc(Nc1cccc(Cl)c1)c1ccncc12 (centres unmarked) [Compound 13, 5-((3-Chlorophenyl)amino)-N-(10-(2-((2-(2,6-dioxopiperidin-3-yl)-1,3-dioxoisoindolin-4-yl)oxy)acetamido)decyl)benzo[c][2,6]naphthyridine-8-carboxamide] | 0.56 h | 0.56 h | – | –
Cc1sc2c(c1C)C(c1ccc(Cl)cc1)=N[C@@H](CC(=O)Nc1ccc(OCCOCCOCCOCCNc3cccc4c3C(=O)N(C3CCC(=O)NC3=O)C4=O)cc1)c1nnc(C)n1-2 (some centres unmarked) [Compound 3, ARV-825, reference compound] | 0.462 h | 0.462 h | – | –
O=C(COc1cccc2c1C(=O)N(C1CCC(=O)NC1=O)C2=O)NCCCCCCCCNC(=O)c1ccc2c(c1)nc(Nc1cccc(Cl)c1)c1ccncc12 (centres unmarked) [Compound 12, 5-((3-Chlorophenyl)amino)-N-(8-(2-((2-(2,6-dioxopiperidin-3-yl)-1,3-dioxoisoindolin-4-yl)oxy)acetamido)octyl)benzo[c][2,6]naphthyridine-8-carboxamide] | 0.69 h | 0.69 h | – | –
Cc1ncsc1-c1ccc([C@H](C)NC(=O)[C@@H]2C[C@@H](O)CN2C(=O)[C@@H](NC(=O)CCCCCCNC(=O)C[C@@H]2N=C(c3ccc(Cl)cc3)c3c(sc(C)c3C)-n3c(C)nnc32)C(C)(C)C)cc1 [Compound 8, (2S,4R)-1-((S)-2-(7-(2-((S)-4-(4-Chlorophenyl)-2,3,9-trimethyl-6H-thieno[3,2-f][1,2,4]triazolo[4,3-a][1,4]diazepin-6-yl)acetamido)heptanamido)-3,3-dimethylbutanoyl)-4-hydroxy-N-((S)-1-(4-(4-methylthiazol-5-yl)phenyl)ethyl)pyrrolidine-2-carboxamide] | 1.36 h | 1.36 h | – | –
O=C1CCC(N2C(=O)c3cccc(NCCCCCCNC(=O)c4ccc5c(c4)nc(Nc4cccc(Cl)c4)c4ccncc45)c3C2=O)C(=O)N1 (centres unmarked) [Compound 16, 5-((3-Chlorophenyl)amino)-N-(6-((2-(2,6-dioxopiperidin-3-yl)-1,3-dioxoisoindolin-4-yl)amino)hexyl)benzo[c][2,6]naphthyridine-8-carboxamide] | 0.578 h | 0.578 h | – | –
Cc1ncsc1-c1ccc([C@H](C)NC(=O)[C@@H]2C[C@@H](O)CN2C(=O)[C@@H](NC(=O)CCCCCCNC(=O)c2ccc3c(c2)nc(Nc2cccc(Cl)c2)c2ccncc23)C(C)(C)C)cc1 [Compound 18, 5-((3-Chlorophenyl)amino)-N-(7-(((S)-1-((2S,4R)-4-hydroxy-2-(((S)-1-(4-(4-methylthiazol-5-yl)phenyl)ethyl)carbamoyl)pyrrolidin-1-yl)-3,3-dimethyl-1-oxobutan-2-yl)amino)-7-oxoheptyl)benzo[c][2,6]naphthyridine-8-carboxamide] | 3.48 h | 3.48 h | – | 3.48 h
Cc1sc2c(c1C)C(c1ccc(Cl)cc1)=N[C@@H](CC(=O)NCCCCCCCCNC(=O)COc1cccc3c1C(=O)N(C1CCC(=O)NC1=O)C3=O)c1nnc(C)n1-2 (some centres unmarked) [Compound 2, dBet6, reference compound] | 0.303 h | 0.303 h | – | 0.303 h
Cc1sc2c(c1C)C(c1ccc(Cl)cc1)=N[C@@H](CC(=O)NCCCN1CCN(CCCNc3cccc4c3C(=O)N(C3CCC(=O)NC3=O)C4=O)CC1)c1nnc(C)n1-2 (stereo partly drawn) [Compound 6, 2-((S)-4-(4-Chlorophenyl)-2,3,9-trimethyl-6H-thieno[3,2-f][1,2,4]triazolo[4,3-a][1,4]diazepin-6-yl)-N-(3-(4-(3-((2-(2,6-dioxopiperidin-3-yl)-1,3-dioxoisoindolin-4-yl)amino)propyl)piperazin-1-yl)propyl)acetamide] | 1.45 h | 1.45 h | – | 1.45 h
Cc1ncsc1-c1ccc([C@H](C)NC(=O)[C@@H]2C[C@@H](O)CN2C(=O)[C@@H](NC(=O)COCCCOCCNC(=O)C[C@@H]2N=C(c3ccc(Cl)cc3)c3c(sc(C)c3C)-n3c(C)nnc32)C(C)(C)C)cc1 [Compound 10, ARV-771, reference compound] | 2.52 h | 2.52 h | – | –
O=C(COc1cccc2c1C(=O)N(C1CCC(=O)NC1=O)C2=O)NCCOCCOCCOCCNC(=O)c1ccc2c(c1)nc(Nc1cccc(Cl)c1)c1ccncc12 (centres unmarked) [Compound 14, 5-((3-Chlorophenyl)amino)-N-(1-((2-(2,6-dioxopiperidin-3-yl)-1,3-dioxoisoindolin-4-yl)oxy)-2-oxo-6,9,12-trioxa-3-azatetradecan-14-yl)benzo[c][2,6]naphthyridine-8-carboxamide] | 1.28 h | 1.28 h | – | –
Cc1ncsc1-c1ccc([C@H](C)NC(=O)[C@@H]2C[C@@H](O)CN2C(=O)[C@@H](NC(=O)CCCCNC(=O)c2ccc3c(c2)nc(Nc2cccc(Cl)c2)c2ccncc23)C(C)(C)C)cc1 [Compound 17, 5-((3-Chlorophenyl)amino)-N-(5-(((S)-1-((2S,4R)-4-hydroxy-2-(((S)-1-(4-(4-methylthiazol-5-yl)phenyl)ethyl)carbamoyl)pyrrolidin-1-yl)-3,3-dimethyl-1-oxobutan-2-yl)amino)-5-oxopentyl)benzo[c][2,6]naphthyridine-8-carboxamide] | 3.4 h | 3.4 h | – | 3.4 h
Cc1ncsc1-c1ccc([C@H](C)NC(=O)[C@@H]2C[C@@H](O)CN2C(=O)[C@@H](NC(=O)COCCOCCNC(=O)C[C@@H]2N=C(c3ccc(Cl)cc3)c3c(sc(C)c3C)-n3c(C)nnc32)C(C)(C)C)cc1 [Compound 9, (2S,4R)-1-((S)-2-(tert-Butyl)-14-((S)-4-(4-chlorophenyl)-2,3,9-trimethyl-6H-thieno[3,2-f][1,2,4]triazolo[4,3-a][1,4]diazepin-6-yl)-4,13-dioxo-6,9-dioxa-3,12-diazatetradecanoyl)-4-hydroxy-N-((S)-1-(4-(4-methylthiazol-5-yl)phenyl)ethyl)pyrrolidine-2-carboxamide] | 2.28 h | 2.28 h | – | –

Other lines, results leading:

half-life at 1 µM [1] | half-life at 1 µM [2] | half-life at 1 µM (Table S2, free ligands, cryopreserved human hepatocytes, read-out: t1/2) | half-life at 1 µM [3] | Compound
0.42 h | 0.42 h | – | – | Cc1ncsc1-c1ccc([C@H](C)NC(=O)[C@@H]2C[C@@H](O)CN2C(=O)[C@@H](NC(=O)COCCCNC(=O)COc2c(-c3csc(N4CCOCC4)n3)ccc(F)c2F)C(C)(C)C)cc1 [Compound 36]
– | 1.66 h | 1.66 h | – | O=C(O)c1ccc2c(c1)nc(Nc1cccc(Cl)c1)c1ccncc12 [Compound 44, CX4945, reference compound]
1.52 h | 1.52 h | – | – | Cc1ncsc1-c1ccc([C@H](C)NC(=O)[C@@H]2C[C@@H](O)CN2C(=O)[C@@H](NC(=O)CCCCCCC(=O)N2CCN(C(=O)c3cc(Cc4n[nH]c(=O)c5ccccc45)ccc3F)CC2)C(C)(C)C)cc1 [Compound 23, (2S,4R)-1-((S)-2-(8-(4-(2-Fluoro-5-((4-oxo-3,4-dihydrophthalazin-1-yl)methyl)benzoyl)piperazin-1-yl)-8-oxooctanamido)-3,3-dimethylbutanoyl)-4-hydroxy-N-((S)-1-(4-(4-methylthiazol-5-yl)phenyl)ethyl)pyrrolidine-2-carboxamide]
1.11 h | 1.11 h | – | – | O=C(COc1cccc2c1C(=O)N(C1CCC(=O)NC1=O)C2=O)NCCOCCOCCOCCNC(=O)COc1c(-c2csc(N3CCOCC3)n2)ccc(F)c1F (centres unmarked) [Compound 28, 2-(2,3-Difluoro-6-(2-morpholinothiazol-4-yl)phenoxy)-N-(1-((2-(2,6-dioxopiperidin-3-yl)-1,3-dioxoisoindolin-4-yl)oxy)-2-oxo-6,9,12-trioxa-3-azatetradecan-14-yl)acetamide]
0.262 h | 0.262 h | – | – | O=C1CCC(N2C(=O)c3cccc(NCCCCCCCCCCC(=O)N4CCN(C(=O)c5cc(Cc6n[nH]c(=O)c7ccccc67)ccc5F)CC4)c3C2=O)C(=O)N1 (centres unmarked) [Compound 21, 2-(2,6-Dioxopiperidin-3-yl)-4-((11-(4-(2-fluoro-5-((4-oxo-3,4-dihydrophthalazin-1-yl)methyl)benzoyl)piperazin-1-yl)-11-oxoundecyl)amino)isoindoline-1,3-dione]
1.13 h | 1.13 h | – | – | Cc1ncsc1-c1ccc([C@H](C)NC(=O)[C@@H]2C[C@@H](O)CN2C(=O)[C@@H](NC(=O)CCCCCCCOc2c(-c3csc(N4CCOCC4)n3)ccc(F)c2F)C(C)(C)C)cc1 [Compound 38]
0.668 h | 0.668 h | – | 0.668 h | Cc1ncsc1-c1ccc([C@H](C)NC(=O)[C@@H]2C[C@@H](O)CN2C(=O)[C@@H](NC(=O)CCCCn2cc(COc3c(-c4csc(N5CCOCC5)n4)ccc(F)c3F)nn2)C(C)(C)C)cc1 [Compound 39]
1.58 h | 1.58 h | – | – | Cc1ncsc1-c1ccc([C@H](C)NC(=O)[C@@H]2C[C@@H](O)CN2C(=O)[C@@H](NC(=O)CCCCCCCCCCC(=O)N2CCN(C(=O)c3cc(Cc4n[nH]c(=O)c5ccccc45)ccc3F)CC2)C(C)(C)C)cc1 [Compound 22, (2S,4R)-1-((S)-2-(12-(4-(2-Fluoro-5-((4-oxo-3,4-dihydrophthalazin-1-yl)methyl)benzoyl)piperazin-1-yl)-12-oxododecanamido)-3,3-dimethylbutanoyl)-4-hydroxy-N-((S)-1-(4-(4-methylthiazol-5-yl)phenyl)ethyl)pyrrolidine-2-carboxamide]
0.755 h | 0.755 h | – | – | O=C1CCC(N2C(=O)c3cccc(NCCOCCOCCOc4c(-c5csc(N6CCOCC6)n5)ccc(F)c4F)c3C2=O)C(=O)N1 (centres unmarked) [Compound 32, 4-((2-(2-(2-(2,3-Difluoro-6-(2-morpholinothiazol-4-yl)phenoxy)ethoxy)ethoxy)ethyl)amino)-2-(2,6-dioxopiperidin-3-yl)isoindoline-1,3-dione]
